According to patent US20240124389A1, “COMPOUND OR SALT THEREOF, LIPID PARTICLES, AND PHARMACEUTICAL COMPOSITION” (FUJIFILM Corporation, priority 2021, published 2024):

Tests used:
EPO mRNA = experiment: mRNA encapsulation rate of EPO mRNA-encapsulating lipid particles; type: physicochemical; conditions: aminolipid 50 / DOPE 10 / cholesterol 38.5 / DMG-PEG2000 1.5 mol %, lipid/nucleic acid 64 wt/wt
In short: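 Lipid particles made by mixing lipids in ethanol (20 mmol/L total) with EPO mRNA in 50 mmol/L citrate pH 4 (lipid:mRNA weight ratio about 16:1–64:1), then dialysed against 10% sucrose. Total mRNA measured after ethanol precipitation; outer-phase mRNA by RiboGreen fluorescence (ex 485/em 535 nm). Encapsulation (%) = (total − outer)/total × 100.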

human EPO = experiment: Measurement of EPO enzyme activity (EPO protein in blood plasma of mice after intravenous administration of EPO mRNA lipid particles); type: in vivo; conditions: C57BL/6J mice, tail-vein i.v., mRNA 0.1 mg/kg, plasma 20 to 24 hours; aminolipid 50 / DOPE 10 / cholesterol 38.5 / DMG-PEG2000 1.5 mol %; lipid/nucleic acid 64 wt/wt
In short: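 C57BL/6J mice received EPO mRNA (5moU) in lipid particles (ionizable lipid, DSPC/DOPE/DOPC, cholesterol, DMG-PEG2000) by tail-vein injection at 0.1 mg/kg mRNA. Plasma taken 20–24 h later; human EPO measured by ELISA and expressed relative to a comparative formulation set as 1.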

[1] = Particle size of PTEN ASO-LNP; type: physicochemical; conditions: PTEN ASO lipid particles; aminolipid 50 / DSPC 20 / cholesterol 28.5 / monostearyl PEG 1.5 mol %; lipid/nucleic acid 11.8 wt/wt
Procedure: The first lipid, phospholipid, cholesterol, and polyethylene glycol lipid (PEG lipid) shown in Table 3 were dissolved in ethanol at the molar ratio shown in Table 3 such that the total lipid concentration was 20 mmol/L to obtain the oil phase.
As the neutral lipid, 1,2-Distearoyl-sn-glycero-3-phosphocholine (DSPC, product name: COATSOME MC-8080, NOF corporation) was used. As the cholesterol, cholesterol (product name: Cholesterol HP; Nippon Seika Co., Ltd.) was used. As the PEG lipid, monostearyl PEG (product name: Polyethylene Glycol Monostearate (4E.O.), FUJIFILM Wako Pure Chemical Corporation) was used.
5 mg of PTEN ASO was dissolved in 1 mL of sterile water and diluted with a 10 mmol/L acetate buffer having a pH of 4 such that the nucleic acid concentration was 54.6 μmol/L, to obtain a water phase. Then the water phase and the oil phase were mixed together with a micromixer (see JP5288254B) using a syringe pump such that the volume ratio of water phase:oil phase was 3:1, and the mixed solution was two-fold diluted with a phosphate buffered physiological saline (PBS), thereby obtaining a dispersion of nucleic acid lipid particles.
The particle size and polydispersion index of the lipid particles were measured by 10-fold diluting the dispersion liquid of lipid particle with phosphate buffered physiological saline (PBS) using Zeta-potential & Particle size Analyzer ELS-Z2 (Otsuka Electronics Co., Ltd.).

Nucleic acid encapsulation rate (EPO mRNA) [%]	Particle size [1] [nm]	SMILES	Relative amount of EPO protein (with respect to Comparative Example 1) (human EPO)
99.9	81.5	CCCCCC(CCCCC)COC(=O)CCCC(CCC)OC(=O)OCCN(CCOC(=O)OC(CCC)CCCC(=O)OCC(CCCCC)CCCCC)CCN(CC)CC (stereo not drawn) [Example 21, Bis(2-pentylheptyl) 11-(2-(diethylamino)ethyl)-7,15-dioxo-5,17-dipropyl-6,8,14,16-tetraoxa-11-azahenicosanedioate]	4.66
97.1	104.3	CCCCCCCOC(=O)CCCC(CCCC(=O)OCCCCCCC)OC(=O)OCCN(CCOC(=O)OC(CCCC(=O)OCCCCCCC)CCCC(=O)OCCCCCCC)CCN(CC)CC [Example 29, diheptyl 11-(2-(diethylamino)ethyl)-5,17-bis(4-(heptyloxy)-4-oxobutyl)-7,15-dioxo-6,8,14,16-tetraoxa-11-azahenicosanedioate]	9.90
99.0	58.6	CCCCCCCOC(=O)CCCC(CCCC(=O)OCCCCCCC)OC(=O)OCCN(CCOC(=O)OC(CCCC(=O)OCCCCCC)CCCC(=O)OCCCCCC)CCN(CC)CC [Example 37, 1-Heptyl 21-hexyl 11-(2-(diethylamino)ethyl)-5-(4-(heptyloxy)-4-oxobutyl)-17-(4-(hexyloxy)-4-oxobutyl)-7,15-d ioxo-6,8,14,16-tetraoxa-11-azahenicosanedioate]	5.18

Second part, the compound before the results:

SMILES	Nucleic acid encapsulation rate (EPO mRNA) [%]	Particle size [1] [nm]	Relative amount of EPO protein (with respect to Comparative Example 1) (human EPO)
CCCCCCC(CCCC)COC(=O)CCCC(CCCCCC)OC(=O)OCCN(CCOC(=O)OC(CCCCCC)CCCC(=O)OCC(CCCC)CCCCCC)CCN(CC)CC (stereo not drawn) [Example 8, Bis(2-butyloctyl) 11-(2-(diethylamino)ethyl)-5,17-dihexyl-7,15-dioxo-6,8,14,16-tetraoxa-11-azahenicosanedioate]	98.0	87.7	2.27
CCCCCCC(CCCC(=O)OCC(CCCCC)CCCCC)OC(=O)OCCN(CCCN(CC)CC)CCOC(=O)OC(CCCCCC)CCCC(=O)OCC(CCCCC)CCCCC (stereo not drawn) [Example 13, Bis(2-pentylheptyl) 11-(3-(diethylamino)propyl)-5,17-dihexyl-7,15-dioxo-6,8,14,16-tetraoxa-11-azahenicosanedio ate]	98.5	60.4	5.09
